# Assay results reported in article PMC8190750 (Cell Research, 2021).
# Numbered stars: 1 amine (or outer) side, 2 acyl side, 3 side chain; on linkers, the order of the positions; unused ones are H or OH. Bridge positions count the residues as written; N and C are the ends. Square brackets hold non-standard residues; d marks the D form. Peptide text beside a SMILES is read from it. * marks the point of attachment. X1 = CC[C@H](C)[C@@H](N[*:1])[C@@H](O)CC(=O)O[C@H](C(=O)[C@H](C)C(=O)[*:2])C(C)C; NMeY = CN[C@@H](Cc1ccc(O)cc1)C(=O)O; dNMeL = CN[C@H](CC(C)C)C(=O)O; Pyruvoyl = CC(=O)C(=O)*
# Tests used:
# SARS-CoV-2 [1] = details: in vivo; cited from earlier work
# SARS-CoV-2 [2] = details: in vivo; cited from earlier work; remark: listed apart in the source
# 2-E channels = 2-E channels (Severe acute respiratory syndrome coronavirus 2, UniProt P0DTC4); type: biochemical, SARS-CoV-2
# 2-E channels, sequence (P0DTC4 whole entry, looked up): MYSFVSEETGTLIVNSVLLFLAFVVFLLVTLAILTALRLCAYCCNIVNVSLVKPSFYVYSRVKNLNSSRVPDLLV
# SARS-CoV-2 [3] = type: cell-based; details: read-out: IC50 Anti-virus
# [4] = tested on: 2-E-induced cell death in Vero E6 cells; type: cell-based, African green monkey; details: read-out: IC50 Cell protection
# SARS-CoV-2 [5] = details: in vivo; cited from earlier work; remark: listed apart in the source
compound,measurement,setting,value
CN[C@H]1C(=O)N[C@@H]2Cc3ccc(cc3)Oc3cc4cc(c3O[C@@H]3O[C@H](C(=O)O)[C@@H](O)[C@H](O)[C@H]3NC(=O)CCCCCCCCC(C)C)Oc3ccc(cc3Cl)[C@@H](O)[C@@H]3NC(=O)[C@H](NC(=O)[C@@H]4NC(=O)[C@@H](NC2=O)c2cc(cc(O)c2Cl)Oc2cc1ccc2O)c1ccc(O)c(c1)-c1c(O[C@H]2O[C@H](CO)[C@@H](O)[C@H](O)[C@@H]2O)cc(O)cc1[C@@H](C(=O)NCCCN(C)C)NC3=O [dalbavancin],prophylactic effects on viral replication and lung injuries,SARS-CoV-2 [1],good prophylactic effects
CCN(CCO)CCCC(C)Nc1ccnc2cc(Cl)ccc12 (stereo not shown) [hydroxychloroquine],virus loading or titers in the respiratory tissues,SARS-CoV-2 [2],failed to reduce virus loading or titers in the respiratory tissues
COC(=O)C1=C(C)NC(C)=C(C(=O)OC)C1c1ccccc1[N+](=O)[O-] [Nifedipine],effects on 2-E channels,2-E channels,negligible effects
OC(c1cc(C(F)(F)F)nc2c(C(F)(F)F)cccc12)C1CCCCN1 (stereo not shown) [mefloquine],prophylactic effects on viral replication and lung injuries,SARS-CoV-2 [1],good prophylactic effects
CC[C@H](C)[C@H]1NC(=O)[C@@H](NC(=O)[C@@H](CC(C)C)N(C)C(=O)[C@@H]2CCCN2C(=O)C(C)=O)[C@@H](C)OC(=O)[C@H](Cc2ccc(OC)cc2)N(C)C(=O)[C@@H]2CCCN2C(=O)[C@H](CC(C)C)NC(=O)[C@@H](C)C(=O)[C@H](C(C)C)OC(=O)C[C@@H]1O [plitidepsin] (Pyruvoyl-P[dNMeL]T[X1]LP[NMeY](Me); ester 3-C),prophylactic effects on viral replication and lung injuries,SARS-CoV-2 [1],good prophylactic effects
"5-(N, N-hexamethylene)-amiloride [HMA]",cytotoxicity (in words),Vero E6 cells,strong cytotoxicity
same,concentration with inhibitory activity on 2-E channels,2-E channels,≥ 50 µM
Berbamine [BE-12],IC50,SARS-CoV-2 [3],14.5 µM
same,IC50,[4],34.3 µM
NC12CC3CC(CC(C3)C1)C2 [amantadine],concentration with inhibitory activity on 2-E channels,2-E channels,≥ 50 µM
CC[N+](CC)(CC)CC [Tetraethylammonium],effects on 2-E channels,2-E channels,negligible effects
NC1=N[C@H](O)[C@H]2[C@H]3O[C@]4(O)O[C@@H]([C@@H](O)[C@@]2(N1)[C@@H]4O)[C@]3(O)CO [Tetrodotoxin],effects on 2-E channels,2-E channels,negligible effects
CCC(CC)COC(=O)[C@H](C)N[P@](=O)(OC[C@H]1O[C@@](C#N)(c2ccc3c(N)ncnn23)[C@H](O)[C@@H]1O)Oc1ccccc1 [remdesivir],virus loading in the respiratory tract,SARS-CoV-2 [5],cannot reduce the virus loading in the respiratory tract
